In patent US9744137B2, “Topiramate compositions and methods of enhancing its bioavailability” (Supernus Pharmaceuticals, Inc., priority 2006, dated 2017):
Where two headings read alike, the source gives them in different places.

Assays:
[1] = Degradation of topiramate in 0.1 N HCl (simulated gastric fluid) at 37° C., HPLC-ELSD; assay type: physicochemical; details: drug substance, 24 hours of incubation in 0.1 N HCl at 37° C.
Description: Degradation of topiramate was detected during a dissolution profile of Topamax® tablets in simulated gastric fluid (i.e., 0.1 N HCl). […] Topiramate analysis was carried out using HPLC equipped with Evaporative Laser Light Scattering Detector at 92° C. Separation was achieved using a C-8 reversed-phase column under isocratic conditions of 50% acetonitrile in water. The samples were kept at 4° C. throughout the analysis. Prior to sample injection, the system was equilibrated for 1 hr and subjected to a system suitability test. Linearity was evaluated by linearity curve with power fit. The samples were injected in duplicate and degradation was calculated using the sample area linearity slope and power.

[2] = cited from earlier work
patients with epilepsy = details: cited from earlier work; for time leading up to the first seizure (median seizure-free duration): monotherapy
[3] = cited from earlier work; remark: listed apart in the source

topiramate degraded [1]: approximately 70%
SMILES: CC1(C)OC2[C@@H](CO[C@@]3(COS(N)(=O)=O)OC(C)(C)O[C@@H]23)O1 (stereo partly drawn) [topiramate, 2,3:4,5-Di-O-isopropylidene-beta-D-fructopyranose sulfamate]
effect of food on pharmacokinetics ([2]; in vivo): not significantly affected by food | mean elimination half life ([2]; in vivo): about 21 hours | time to peak plasma drug concentrations ([2]; oral administration of an immediate release dosage form): approximately 2 hours | plasma topiramate concentration (patients with epilepsy; 9 patients who became seizure-free): 5.3 ± 2.6 µg/mL | time leading up to the first seizure (median seizure-free duration) (patients with epilepsy; 215 patients with partial epilepsy, serum concentrations <1.8 mg/L): 84 days | time leading up to the first seizure (median seizure-free duration) (patients with epilepsy; serum concentrations above 9.9 mg/L): 451 days | time leading up to the first seizure (median seizure-free duration) (patients with epilepsy; serum concentrations between 1.8 and 9.9 mg/L): 194 days | mean topiramate plasma concentration (patients with epilepsy; positive responders): around 7 μg/mL | mean topiramate plasma concentration (patients with epilepsy; seizure-free patients): ~9 µg/mL | plasma levels at steady state ([3]; migraine prophylaxis): 1.2 to 4.4 µg/mL | mean serum level ([3]; pediatric migraine study, daily dose 84.0+/−38.6 mg/day): 2.8 ± 1.6 µg/mL
